Assays:
DUB = test: Experiment 2: DUB reporter Z-LRGG-AMC with control, 5011, IU1 and KOE lysates; format: biochemical; settings: lysate 4 mg/mL
Description: Peptide used was the commercial DUB reporter [Z-LRGG-AMC (SEQ ID NO: 1)] at multiple concentration [50-150 um]. 640 μL protein at 10 mg/mL for each set was given. Final protein concentration in micro-wells was 4 mg/mL. Peptide was incubated with control, 5011 treated, 25 uM IU1, 50 uM IU1 and KOE in DUB assay buffer. Fluorometric readings were taken at different time points in plate reader. Measured at [Em 460/Ex 355]. Fluorescent signals were converted to μM/min using a calibration curve for the AMC fluorophore. Rates were plotted vs. substrate concentration (Z-LRGG-AMC peptide (SEQ ID NO: 1)) (FIG. 7).

[1] = MTT cellular viability assay, OPM2; format: cell-based; settings: human, OPM2 cells, read-out: percentage of viable cells
Description: (§1) The effect of PMI-5011 and bioactive compounds on the viability of cells was tested using a standard colorimetric MTT assay. The MTT Cell Proliferation Assay Kit was purchased from VWR, Radnor, Pa. MM.1S and OPM2 cells were treated with 10 μg/mL of PMI-5011 and 1, 10, and 30 μg/mL of DMC-1, DMC-2, KOE and davidigenin and plated at a density of 10^6 cells/mL in a 96-well plate with each well containing 250 μL of the sample. The plated cells were then incubated at 37° C. for 16 h. 10 μg/mL for PMI-5011 and a 16-h treatment period was used in this study based on previous findings by Yu et al.^24 Parallel plates were prepared for positive and negative solvent vehicle control with the same volume of DMSO and ethanol as for the treated cells. On the day of the experiment, the 96-well plates were centrifuged at 1000×g at 4° C. for 5 min in a microplate compatible centrifuge. The media was discarded and 50 μL of serum-free media and 50 μL of the MTT reagent were added into each well. For a background control, 50 μL of the MTT reagent was added into a well containing media only (no cells). The plate was incubated at 37° C. for 3 h in the dark. After incubation, 150 μL of the MTT solvent was added into each well. The plate was wrapped in a foil and placed on an orbital shaker for 15 min. Finally, the absorbance was measured at λex=544 nm and λem=590 nm using a Wallac 1420 VICTOR2 multilabel HTS counter fluorometry (Perkin Elmer (Waltham, Mass.). The percentage viable cells was obtained by Eq. 1.
(§2) % Viable Cells=S-N/C-N×100 (Eq. 1)
(§3) Where, S denotes raw absorbance values from samples, N denotes average absorbance value of the background control and C denotes the highest average absorbance value of positive vehicle control. The obtained percentage cytotoxicity values were then statistically analyzed for their significance. Each data point represents triplicate data points from duplicate experiments. The effect of PMI-5011 and the selected bioactive compounds on C2C12 cell viability has previously been reported.^24

[2] = tested on: deubiquitinating enzymes (DUBs); test: DUB activity (Z-LRGG-AMC cleavage) in lysates of treated OPM2 cells; format: cell-based; settings: for Vmax / effect on DUB activity vs DMSO control / Km / n (Hill coefficient): 16 h; for effect of increasing concentration on DUB activity (normalized Vmax): 1, 10, 30 μg/mL, regression fit
Description: (§4) OPM2 cells were maintained in RPMI 1640 media supplemented with 12% FBS, 21.8 mM glucose, 8.6 mM HEPES (pH 7.4) and 1.0 mM sodium pyruvate. MM.1S cell line were maintained in RPMI 1640 media supplemented with 10% FBS. The cells were all cultured in T175 flasks (VWR, Radnor, Pa.). All media components were from Corning, Atlanta, Ga. unless otherwise noted. To test the effect of the ethanolic extract and bioactive compounds on DUB activity, cells were exposed to a 16-h pretreatment with 10 μg/mL of PMI-5011 and 1, 10, 30 μg/mL concentrations of DMC-1, DMC-2, KOE, and davidigenin before lysing the cells for experimentation. All compounds were reconstituted in DMSO to obtain stock concentrations, which was further diluted in culture media to obtain the desired experimental concentrations. For vehicle control, a subpopulation of cells was treated with pure DMSO diluted in a similar manner for the same duration. Upon treatment, cell lysates (both OPM2 and MM.1S) were generated by harvesting 1×10^6 cells/mL, followed by washing 2× and pelleting in phosphate buffered saline (PBS; 137 mM NaCl, 10 mM Na2HPO4, […], and 1.75 mM KH2PO4 at pH 7.4). The cell pellet was re-suspended in an approximately equivalent volume of M-PER to the volume of the cell pellet (1000-2000 μL) then vortexed for 10 min at room temperature. Following this, the mixture was centrifuged at 14,000×g for 15 min at 4° C. and the supernatant transferred to a centrifuge tube and stored on ice until use. Total protein concentration was determined using a NanoDrop 2000c (Thermo Scientific, Madison, Wis.).
(§5) The commercial DUB reporter, Z-LRGG-AMC (substrate) (SEQ ID NO: 1) was reconstituted in DMSO to obtain a final stock concentration of 1.44 mM. This stock reporter was diluted as needed in assay buffer (50 mM HEPES, pH 7.4, 150 mM NaCl, 2 mM DTT, and 0.02% Tween-20) supplemented with 4 mg/mL cell lysates (source of DUBs) to reach the desired reporter concentration with a final volume of 100 μL in a 96-well plate. OPM2 and MM.1S cell lysates from different treatments (10 μg/mL of PMI-5011; 1, 10, and 30 μg/mL of DMC-1, DMC-2, KOE, davidigenin and control vehicle DMSO) and C2C12 cell lysates were used to interrogate the effect of the ethanolic extract and selected bioactive compounds on DUB activity. Reporter only and lysates only (noise/background) samples were included in the 96-well plate to confirm that the rates observed were due to DUB-mediated hydrolysis initiated by the cell lysates. The 96-well plate was maintained at a temperature of 30° C. in the dark for the duration of the experiment. The fluorescence signals emitted as a result of DUB-mediated cleavage of AMC (λex=355 nm and λem=460 nm) were quantified using a Wallac 1420 VICTOR2 multilabel HTS counter fluorometry (Perkin Elmer (Waltham, Mass.). Readings were collected every 30 min for 6 h. The normalized signals were obtained by comparing the treatment with noise and background fluorescence values which were then statistically analyzed for their significance. Each data point represents triplicate data points from duplicate experiments. A calibration curve was generated for known concentrations of AMC to correlate the fluorescence signal (AU) to concentration (μM). The approximate concentration of free fluorophore was used to calculate reaction rates (μM/min) for each substrate concentration using linear regression analysis.
(§6) All data visualization, interpretation and curve-fittings were performed using Origin Pro (OriginLab, Northampton, MA) while statistical analyses of experimental data were carried out using SAS 9.4 (SAS Solutions). The analyses of enzyme-substrate reactions in all cell lysates started with scatter plotting the fluorometry signals (p,M) measured for each substrate concentration against time (min). Fluorescence signals measured for each substrate concentration remained stable during the first 30 min, indicating there was a 30-minute lag period before reaction initiation. […]

[3] = tested on: deubiquitinating enzymes (DUBs); test: DUB activity (Z-LRGG-AMC cleavage) in lysates of treated MM.1S cells; format: cell-based; settings: for Vmax / effect on DUB activity vs DMSO control / Km / n (Hill coefficient): 16 h; for effect of increasing concentration on DUB activity (normalized Vmax): 1, 10, 30 μg/mL, regression fit
Description: as §4, §5, §6

[4] = MTT cellular viability assay, MM.1S; format: cell-based; settings: human, MM.1S cells, read-out: percentage of viable cells
Description: as §1, §2, §3

[5] = Table 2, OPM-2, 1 μg/mL, in µM/min
[6] = Table 2, OPM-2, 10 μg/mL, in µM/min
[7] = Table 2, OPM-2, 30 μg/mL, in µM/min

Cc1cc(C(=O)CN2CCCC2)c(C)n1-c1ccc(F)cc1 [IU1]
effect on DUB activity vs control (DUB; 25 μM): inhibit
effect on DUB activity vs control (DUB; 50 μM): inhibit

COc1ccc(C(=O)CCc2ccc(O)cc2)c(O)c1 [DMC-1, 1-(2-hydroxy-4-methoxyphenyl)-3-(4-hydroxyphenyl)propan-1-one]
viability at 16 h, 1 μg/mL [1]: ~100%
viability at 16 h, 30 μg/mL [1]: ~60%
Vmax ([2]; OPM2, 1 μg/mL): 33.06 ± 5.08 µM/min
effect on DUB activity vs DMSO control ([2]; OPM2, 1 μg/mL): significantly inhibiting
Vmax ([2]; OPM2, 10 μg/mL): 27.93 ± 4.80 µM/min
effect on DUB activity vs DMSO control ([2]; OPM2, 10 μg/mL): significantly inhibiting
Vmax ([2]; OPM2, 30 μg/mL): 233.44 ± 27.31 µM/min
effect on DUB activity vs DMSO control ([2]; OPM2, 30 μg/mL): significantly enhanced
effect of increasing concentration on DUB activity (normalized Vmax) ([2]; OPM2): exponential increase
Km ([2]; Table 2, OPM-2, 1 μg/mL): 61.4 µM
n (Hill coefficient) ([2]; Table 2, OPM-2, 1 μg/mL): 1.29
Vmax [2, 5]: 33.06±
Km ([2]; Table 2, OPM-2, 10 μg/mL): 46.3 µM
n (Hill coefficient) ([2]; Table 2, OPM-2, 10 μg/mL): 1.40
Vmax [2, 6]: 27.93
Km ([2]; Table 2, OPM-2, 30 μg/mL): 140 µM
n (Hill coefficient) ([2]; Table 2, OPM-2, 30 μg/mL): 0.93
Vmax [2, 7]: 233.44
Vmax ([3]; 1 μg/mL): 7.03 ± 1.10 µM/min
effect on DUB activity vs DMSO control ([3]; 1 μg/mL): significantly inhibiting
Vmax ([3]; 10 μg/mL): 9.19 ± 0.78 µM/min
effect on DUB activity vs DMSO control ([3]; 10 μg/mL): significantly inhibiting
Vmax ([3]; 30 μg/mL): 12.91 ± 1.45 µM/min
effect on DUB activity vs DMSO control ([3]; 30 μg/mL): significantly enhanced
effect of increasing concentration on DUB activity (normalized Vmax) [3]: positive linear effect
Km ([3]; Table 2, 1 μg/mL): 21 µM
Vmax ([3]; Table 2, 1 μg/mL): 0.00703 µM/min
n (Hill coefficient) ([3]; Table 2, 1 μg/mL): 1.33
Km ([3]; Table 2, 10 μg/mL): 26 µM
Vmax ([3]; Table 2, 10 μg/mL): 0.00919 µM/min
n (Hill coefficient) ([3]; Table 2, 10 μg/mL): 1.64
Km ([3]; Table 2, 30 μg/mL): 29.3 µM
Vmax ([3]; Table 2, 30 μg/mL): 0.0129 µM/min
n (Hill coefficient) ([3]; Table 2, 30 μg/mL): 1.07
viability at 16 h, 1 μg/mL [4]: ~95%
viability at 16 h, 30 μg/mL [4]: ~55%

O=C(CCc1ccc(O)cc1)c1ccc(O)cc1O [DVG, 1-(2,4-dihydroxyphenyl)-3-(4-hydroxyphenyl)propan-1-one]
viability at 16 h, 1 μg/mL [1]: ~90%
viability at 16 h, 30 μg/mL [1]: ~60%
effect on DUB activity (summary) ([2]; OPM2): enhance
Vmax ([2]; OPM2, 1 μg/mL): 23.32 ± 1.58 µM/min
effect on DUB activity vs DMSO control ([2]; OPM2, 1 μg/mL): significantly enhanced
Vmax ([2]; OPM2, 10 μg/mL): 24.76 ± 1.84 µM/min
effect on DUB activity vs DMSO control ([2]; OPM2, 10 μg/mL): significantly enhanced
Vmax ([2]; OPM2, 30 μg/mL): 315.24 ± 41.65 µM/min
effect on DUB activity vs DMSO control ([2]; OPM2, 30 μg/mL): significantly enhanced
effect of increasing concentration on DUB activity (normalized Vmax) ([2]; OPM2): exponential increase
Km ([2]; Table 2, OPM-2, 1 μg/mL): 56.4 µM
n (Hill coefficient) ([2]; Table 2, OPM-2, 1 μg/mL): 0.82
Vmax [2, 5]: 23.32
Km ([2]; Table 2, OPM-2, 10 μg/mL): 45.5 µM
n (Hill coefficient) ([2]; Table 2, OPM-2, 10 μg/mL): 1.78
Vmax [2, 6]: 24.76
Km ([2]; Table 2, OPM-2, 30 μg/mL): 89.4 µM
n (Hill coefficient) ([2]; Table 2, OPM-2, 30 μg/mL): 1.34
Vmax [2, 7]: 315.24
effect on DUB activity (summary) [3]: inhibit
Vmax ([3]; 1 μg/mL): 12.72 ± 0.78 µM/min
effect on DUB activity vs DMSO control ([3]; 1 μg/mL): significantly enhanced
Vmax ([3]; 10 μg/mL): 12.23 ± 1.30 µM/min
effect on DUB activity vs DMSO control ([3]; 10 μg/mL): significantly enhanced
Vmax ([3]; 30 μg/mL): 6.48 ± 0.54 µM/min
effect on DUB activity vs DMSO control ([3]; 30 μg/mL): significantly inhibited
effect of increasing concentration on DUB activity (normalized Vmax) [3]: negative linear effect
Km ([3]; Table 2, 1 μg/mL): 30.2 µM
Vmax ([3]; Table 2, 1 μg/mL): 0.0127 µM/min
n (Hill coefficient) ([3]; Table 2, 1 μg/mL): 2.01
Km ([3]; Table 2, 10 μg/mL): 39.2 µM
Vmax ([3]; Table 2, 10 μg/mL): 0.0122 µM/min
n (Hill coefficient) ([3]; Table 2, 10 μg/mL): 1.92
Km ([3]; Table 2, 30 μg/mL): 38.4 µM
Vmax ([3]; Table 2, 30 μg/mL): 0.00648 µM/min
n (Hill coefficient) ([3]; Table 2, 30 μg/mL): 1.51
viability at 16 h, 1 μg/mL [4]: ~105%
viability at 16 h, 30 μg/mL [4]: ~80%

From patent US20230293614A1, “COMPOSITIONS AND METHODS OF TREATING UPS-ASSOCIATED DISEASES” (Board of Supervisors of Louisiana State University and …, priority 2020, published 2023)
